Reference: PubChem BioAssay (NCI)
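Where inhibition never reached the appropriate level, the endpoint shown equals the highest concentration tested. Otherwise, values were interpolated linearly from a five-concentration, 48-hour dose response in 96-well plates. Abbreviation: GI50, concentration required for 50% inhibition of growth. TGI denotes the concentration required for complete inhibition of growth.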

Key:
Test in all cases: NCI-60 cell line screen, 48 h
[1] = tested on: A498 renal
[2] = tested on: OVCAR-5 ovarian
[3] = tested on: SNB-19 CNS
[4] = tested on: RXF 393 renal
[5] = tested on: A549 NSCLC
[6] = tested on: CCRF-CEM leukemia
[7] = tested on: NCI-H522 lung
[8] = tested on: SK-OV-3 ovarian
[9] = tested on: RPMI-8226 leukemia
[10] = tested on: HS 578T breast

| Compound | TGI [1] | TGI [2] | TGI [3] | TGI [4] | TGI [5] | TGI [6] | TGI [7] | TGI [8] | TGI [9] | GI50 [10] | TGI [10] | GI50 [1] | GI50 [2] | GI50 [3] | GI50 [5] | GI50 [9] | GI50 [6] | GI50 [7] | GI50 [8] | GI50 [4] |
| --- | --- | --- | --- | --- | --- | --- | --- | --- | --- | --- | --- | --- | --- | --- | --- | --- | --- | --- | --- | --- |
| O=C1CSc2cc([N+](=O)[O-])ccc2N1 | > 100 µM | > 100 µM | > 100 µM | > 100 µM | > 100 µM | > 100 µM | > 100 µM | > 100 µM |  |  |  |  |  |  |  |  |  |  |  |  |
| CCN(CC)CC(=N)N(CC)c1ccccc1 | > 100 µM | > 100 µM | > 100 µM | > 100 µM | > 100 µM | > 100 µM | > 100 µM | > 100 µM | > 100 µM |  |  |  |  |  |  |  |  |  |  |  |
| O=C1OCC2=C1C(c1ccccc1)c1cc3c(cc1N2CCO)OCCO3 (stereo not given) | 4.05 µM | > 50 µM | > 16.8 µM |  | > 40.1 µM | > 50 µM | 0.165 µM | 13.4 µM | > 50 µM | 0.206 µM | 10.8 µM | 0.188 µM | 2.12 µM | 0.921 µM | 0.62 µM | 0.392 µM | 0.276 µM | 0.0593 µM | 0.348 µM |  |
| O=C(/C=C\c1ccccc1)N1CCc2ccccc2C1 | > 100 µM |  | > 100 µM | > 100 µM |  | 91.3 µM |  | > 100 µM | 52.4 µM |  | > 100 µM |  |  |  |  |  |  |  |  |  |
| O=C(O)/C(=C\c1ccncc1)c1cccc2ccccc12 |  | > 100 µM | > 100 µM | > 100 µM | > 100 µM | > 100 µM | > 100 µM | > 100 µM | > 100 µM |  | > 100 µM |  |  |  |  |  |  |  |  |  |
| N.N.O=P([O-])([O-])C1(P(=O)([O-])[O-])CCCCCN1.[Pt+2] | > 100 µM |  | > 100 µM | > 100 µM | > 100 µM | > 100 µM | > 100 µM | > 100 µM | > 100 µM |  |  | > 100 µM |  | > 100 µM | > 100 µM | > 100 µM | > 100 µM | > 100 µM | > 100 µM | 42.3 µM |
| Cn1c(=O)c2/c(n(C)c1=O)=N\C=c1\c(=O)n(C)c(=O)n(C)\c1=N\C=2 | > 100 µM | > 100 µM | > 100 µM | > 100 µM | > 100 µM | > 100 µM | > 100 µM |  |  |  |  |  |  |  |  |  |  |  |  |  |
| Cc1ccc(C(=O)CC2=Nc3nnc(CCCCCCCc4nnc5n4C(=O)C(CC(=O)c4ccc(C)cc4)=N5)n3C2=O)cc1 |  | > 100 µM | > 100 µM | > 100 µM | > 100 µM | > 100 µM | > 100 µM | > 100 µM | > 100 µM |  |  |  |  |  |  |  |  |  |  |  |
| O=C(NC(=O)c1ccccc1[N+](=O)[O-])Nc1ccc(Oc2ncc(Cl)cn2)c(C(F)(F)F)c1 | 1.29 µM | 80.4 µM | 85.7 µM |  | > 100 µM | > 100 µM | 0.16 µM | > 46.5 µM | > 67.9 µM |  | 2.45 µM |  |  |  |  |  |  |  |  |  |
| O=C(/C=C\c1cccc2ccccc12)c1cccc2ccccc12 | 31.7 µM |  | 23.7 µM | 20.1 µM | 36.5 µM | 8.97 µM | 16.1 µM |  | > 100 µM |  |  |  |  |  |  | 2.68 µM | 2.28 µM | 4.46 µM |  | 7.46 µM |
| CC(=O)[CH-]C(=O)c1ccccc1.CC(=O)[CH-]C(=O)c1ccccc1.CC[O-].O=C1c2ccccc2C(=O)c2c1ccc(O)c2[O-].[Ti+4] | 83.5 µM | > 100 µM | > 100 µM |  | > 100 µM | 56.6 µM | 60.3 µM | > 100 µM | 64.7 µM |  |  |  |  |  |  |  |  |  | 52.5 µM |  |
| O=NN(CCCl)C(=O)NC1CCC(CC2CCC(NC(=O)N(CCCl)N=O)CC2)CC1 (stereo not given) | 93.9 µM | > 100 µM | 49.1 µM | 44.6 µM | > 100 µM | 50.7 µM | 48.3 µM | > 86.4 µM | > 77.8 µM |  |  |  |  |  |  |  |  |  |  |  |
| COc1cc(NC(=O)C2=C(N3CCOCC3)/C(=C/c3ccc(Cl)cc3)CC2)cc(OC)c1OC | 27.7 µM | > 100 µM | 95.1 µM |  | > 100 µM |  | > 100 µM | 62.8 µM | > 100 µM | 3.97 µM | 40.7 µM | 4.97 µM | > 100 µM | 28.8 µM | 55.9 µM | 2.97 µM |  | 17.2 µM | 21.7 µM |  |
| O=C1C(Cl)=C(Nc2cccc(C(F)(F)F)c2)C(=O)N1Cc1ccc(Cl)cc1 | 15.7 µM | 23.5 µM | 24.1 µM |  | 16.9 µM | > 100 µM | 25.2 µM | 20.8 µM |  | 0.711 µM | 33 µM | 0.73 µM | 2.2 µM | 6.37 µM | 1.13 µM |  | 0.59 µM | 2.11 µM | 3.78 µM |  |
| O=S1Nc2c(Cl)cc(Cl)c(Cl)c2S1 (stereo not given) | > 100 µM | > 100 µM | > 100 µM | > 100 µM | > 100 µM | > 100 µM | > 100 µM | > 100 µM | > 100 µM |  |  |  |  |  |  |  |  |  |  |  |
| OCCN1CCN(CC/C=C2/c3ccccc3Sc3ccc(Cl)cc32)CC1 | 28.1 µM | 30.9 µM | 34.9 µM | 26.5 µM | 29.9 µM | 23.6 µM | 30.1 µM | 29.3 µM | 31.2 µM |  |  |  |  |  |  |  |  |  |  |  |
| O=C(O)Cn1cc([N+](=O)[O-])c(=O)c2ccccc21 | > 100 µM | > 100 µM | > 100 µM |  | > 100 µM | > 100 µM | > 100 µM | > 100 µM |  |  | > 100 µM |  |  |  |  |  |  |  |  |  |
| C[C@@H](Nc1nc(Nc2ccc(F)c(Cl)c2)nc2ccccc12)C1CC1 |  | 16 µM | 22.1 µM |  | 19.6 µM | 7.12 µM | 19.5 µM | 17.3 µM | 3.81 µM | 6.02 µM | 25.6 µM |  | 3.73 µM | 4.44 µM | 5.64 µM | 1.33 µM | 2.25 µM | 4.32 µM | 5.36 µM |  |
| Cc1cccc2c(O)cc(=O)oc12 | > 100 µM | > 100 µM | > 100 µM | > 100 µM | > 100 µM | > 100 µM |  | > 100 µM | > 100 µM |  |  |  |  |  |  |  |  |  |  |  |
| CC1=NN(c2nc(N)nc(/C=C\c3ccc([N+](=O)[O-])s3)n2)C(C)(C)C1 |  | > 100 µM | > 100 µM | > 100 µM | > 100 µM | > 100 µM | > 100 µM | > 100 µM | > 100 µM | > 100 µM | > 100 µM |  | > 100 µM | > 100 µM | > 100 µM | > 100 µM | 77.5 µM | > 100 µM | > 100 µM | > 100 µM |
